Source: US12338256B2, “Aza-tetracyclic oxazepine compounds and uses thereof” (Genentech, Inc., priority 2022, dated 2025)

Experiments:
[1] = test system: HPAC (homozygous mutant KRAS G12D human pancreatic cell line); assay: KRAS 3D-Cell Proliferation Assay, HPAC (Example 503); type: cell-based; details: Homo sapiens, HPAC, 168 h, HPAC 3D culture, 7 days, CellTiter-Glo 3D; read-out: Prolif HPAC 3D ATP IC50
Method in brief: (§1)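 IC50s come from a 4-parameter Hill fit of luminescence (CellTiter-Glo 3D) normalized between DMSO (0%) and 1 μM staurosporine (100%). Cells in low-attachment 3D culture, RPMI-1640 with 10% FBS, received serial compound dilutions (0.3% DMSO) after overnight and were incubated 7 days at 37 °C.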

[2] = test system: H1975 (KRAS wild type human lung adenocarcinoma cell line); assay: KRAS 3D-Cell Proliferation Assay, H1975 (Example 503); type: cell-based; details: Homo sapiens, NCI-H1975, 168 h, H1975 3D culture, 7 days, CellTiter-Glo 3D; read-out: Prolif H1975 3D ATP IC50
Method in brief: as §1

SMILES	IC50 [1] [µM]	IC50 [2] [µM]
Cc1c(F)c(N)cc(-c2nc3c4c(nc(OC[C@@]56C[C@H](F)CN5C[C@H](F)C6)nc4c2F)N2C[C@H]4CC[C@H](N4)[C@H]2[C@H](C)O3)c1C(F)(F)F [Compound 142, 5-((5S,5aS,6S,9R)-12-(((2R,6S,7as)-2,6-Difluorotetrahydro-1H-pyrrolizin-7a(5H)-yl)methoxy)-1-fluoro-5-methyl-5a,6,7,8,9,10-hexahydro-5H-4-oxa-3,10a,11,13,14-pentaaza-6,9-methanonaphtho[1,8-ab]heptalen-2-yl)-2-fluoro-3-methyl-4-(trifluoromethyl)aniline]	0.00545	3.56
Cc1c(F)c(N)cc(-c2nc3c4c(nc(OCC56CCCN5CC(F)C6)nc4c2F)N2CCNCC2C(C)O3)c1C(F)(F)F (single isomer, unassigned) [235 (isomer 1)]	2.42	4.34
COC1(CF)CN(CC2(COc3nc4c5c(nc(-c6cc(N)nc(C)c6C(F)(F)F)c(F)c5n3)O[C@@H](C)[C@@H]3[C@@H]5CC[C@H](CN43)N5)CC2)C1 [Compound 272]	0.00458	5.48
Cc1nc(N)cc(-c2nc3c4c(nc(OCC5(CN6C[C@@H]7C[C@H]6CO7)CC5)nc4c2F)N2C[C@H]4CC[C@H](N4)[C@H]2[C@H](C)O3)c1C(F)(F)F [Compound 208, 4-((5S,5aS,6S,9R)-12-((1-(((1S,4S)-2-Oxa-5-azabicyclo[2.2.1]heptan-5-yl)methyl)cyclopropyl)methoxy)-1-fluoro-5-methyl-5a,6,7,8,9,10-hexahydro-5H-4-oxa-3,10a,11,13,14-pentaaza-6,9-methanonaphtho[1,8-ab]heptalene-2-yl)-6-methyl-5-(trifluoromethyl)pyridin-2-amine]	0.00489	3.63
Cc1nc(N)cc(-c2nc3c4c(nc(OCC5(CN6CCO[C@H](C)C6)CC5)nc4c2F)N2C[C@H]4CC[C@H](N4)[C@H]2[C@H](C)O3)c1C(F)(F)F [Compound 213, 4-((5S,5aS,6S,9R)-1-Fluoro-5-methyl-12-((1-(((R)-2-methylmorpholino)methyl)cyclopropyl)methoxy)-5a,6,7,8,9,10-hexahydro-5H-4-oxa-3,10a,11,13,14-pentaaza-6,9-methanonaphtho[1,8-ab]heptalen-2-yl)-6-methyl-5-(trifluoromethyl)pyridin-2-amine]	0.00125	0.295
Cc1c(F)c(N)cc(-c2nc3c4c(nc(OCC5CCC6CC(F)(F)CCN56)nc4c2F)N2CC4CCC(N4)C2C(C)O3)c1C(F)(F)F (single isomer, unassigned) [119 (isomer 1)]	0.0767	3.15
Cc1cc(N)cc(-c2nc3c4c(nc(OC[C@@H]5CC[C@H]6COCCN65)nc4c2F)N2C[C@H]4CC[C@H](N4)[C@H]2[C@H](C)O3)c1C(F)(F)F [Compound 67, 3-((5S,5aS,6S,9R)-1-Fuoro-1-(((6S,8aS)-hexahydro-1H-pyrrolo[2,1-c][1,4]oxazin-6-yl)methoxy)-5-methyl-5a,6,7,8,9,10-hexahydro-5H-4-oxa-3,10a,11,13,14-pentaaza-6,9-methanonaphtho[1,8-ab]heptalen-2-yl)-5-methyl-4-(trifluoromethyl)aniline]	0.00279	0.639
Cc1c(F)c(N)cc(-c2nc3c4c(nc(OC[C@]56CCCN5C[C@H](F)[C@@H]6F)nc4c2F)N2C[C@H]4CC[C@H](N4)[C@H]2[C@H](C)O3)c1C(F)(F)F (single isomer, unassigned) [143 (isomer 1)]	0.00472	0.972
Cc1nc(N)c(F)c(-c2nc3c4c(nc(OCC56CCN5CC(F)(F)C6)nc4c2F)N2C[C@H]4CC[C@H](N4)[C@H]2[C@H](C)O3)c1C(F)(F)F (stereo partly drawn) [Compound 220, 4-((5S,5aS,6S,9R)-12-((3,3-Difluoro-1-azabicyclo[3.2.0]heptan-5-yl)methoxy)-1-fluoro-5-methyl-5a,6,7,8,9,10-hexahydro-5H-4-oxa-3,10a,11,13,14-pentaaza-6,9-methanonaphtho[1,8-ab]heptalene-2-yl)-3-fluoro-6-methyl-5-(trifluoromethyl)pyridin-2-amine]	0.0118	20
Cc1c(F)c(N)cc(-c2nc3c4c(nc(OCC5CCC6CC(F)CN56)nc4c2F)N2CC4CCC(N4)C2C(C)O3)c1C(F)(F)F (single isomer, unassigned) [152 (isomer 2)]	0.299	6.33
Cc1c(F)c(N)cc(-c2nc3c4c(nc(OC[C@@H]5CC[C@@H]6CC(C(=O)N(C)C)CCN65)nc4c2F)N2C[C@H]4CC[C@H](N4)[C@H]2[C@H](C)O3)c1C(F)(F)F (single isomer, unassigned) [133 (isomer 3)]	0.0363	0.659
Cc1nc(N)cc(-c2nc3c4c(nc(OCC5(CN6CC(C)(F)C6)CC5)nc4c2F)N2C[C@H]4CC[C@H](N4)[C@H]2[C@H](C)O3)c1C(F)(F)F [Compound 289, 4-((5S,5aS,6S,9R)-1-fluoro-12-((1-((3-fluoro-3-methylazetidin-1-yl)methyl)cyclopropyl)methoxy)-5-methyl-5a,6,7,8,9,10-hexahydro-5H-4-oxa-3,10a,11,13,14-pentaaza-6,9-methanonaphtho[1,8-ab]heptalene-2-yl)-6-methyl-5-(trifluoromethyl)pyridin-2-amine]	0.00315	0.573
Cc1c(F)c(N)cc(-c2nc3c4c(nc(OC[C@@]56CCCN5C[C@H](F)C6)nc4c2F)N2C[C@H]4CC[C@H](N4)[C@H]2[C@H](C)O3)c1S(C)(=O)=O [Compound 180, 2-Fluoro-5-((5S,5aS,6S,9R)-1-fluoro-12-(((2R,7aS)-2-fluorotetrahydro-1H-pyrrolizin-7a(5H)-yl)methoxy)-5-methyl-5a,6,7,8,9,10-hexahydro-5H-4-oxa-3,10a,11,13,14-pentaaza-6,9-methanonaphtho[1,8-ab]heptalene-2-yl)-3-methyl-4-(methylsulfonyl)aniline]	2	20
Cc1cc(N)c(F)c(-c2nc3c4c(nc(OC[C@@H]5CC[C@H]6COCCN65)nc4c2F)N2C[C@H]4CC[C@H](N4)[C@H]2[C@H](C)O3)c1CC(F)F [Compound 231, 4-(2,2-Difluoroethyl)-2-fluoro-3-((5S,5aS,6S,9R)-1-fluoro-12-(((6S,8aS)-hexahydro-1H-pyrrolo[2,1-c][1,4]oxazin-6-yl)methoxy)-5-methyl-5a,6,7,8,9,10-hexahydro-5H-4-oxa-3,10a,11,13,14-pentaaza-6,9-methanonaphtho[1,8-ab]heptalen-2-yl)-5-methylaniline]	0.0398	13.2
C[C@@H]1Oc2nc(-c3c(C#N)c(N)c(F)c(F)c3C(F)(F)F)c(F)c3nc(OC[C@@]45CCCN4C[C@H](F)C5)nc(c23)N2C[C@H]3CC[C@H](N3)[C@@H]12 [Compound 107, 2-Amino-3,4-difluoro-6-((5S,5aS,6S,9R)-1-fluoro-12-(((2R,7aS)-2-fluorotetrahydro-1H-pyrrolizin-7a(5H)-yl)methoxy)-5-methyl-5a,6,7,8,9,10-hexahydro-5H-4-oxa-3,10a,11,13,14-pentaaza-6,9-methanonaphtho[1,8-ab]heptalen-2-yl)-5-(trifluoromethyl)benzonitrile]	0.0435	4.87
Cc1c(F)c(N)cc(-c2nc3c4c(nc(OCC5(CN6C[C@@H]7C[C@H]6CO7)CC5)nc4c2F)N2C[C@H]4CC[C@H](N4)[C@H]2[C@H](C)O3)c1C(F)(F)F [Compound 169, 5-((5S,5aS,6S,9R)-12-((1-(((1S,4S)-2-Oxa-5-azabicyclo[2.2.1]heptan-5-yl)methyl)cyclopropyl)methoxy)-1-fluoro-5-methyl-5a,6,7,8,9,10-hexahydro-5H-4-oxa-3,10a,11,13,14-pentaaza-6,9-methanonaphtho[1,8-ab]heptalene-2-yl)-2-fluoro-3-methyl-4-(trifluoromethyl)aniline]	0.00092	0.454
C[C@@H]1Oc2nc(-c3c(F)ccc4cc[nH]c(=O)c34)c(F)c3nc(OC[C@@]45CCCN4C[C@H](F)C5)nc(c23)N2C[C@H]3CC[C@H](N3)[C@@H]12 [Compound 196, 7-Fluoro-8-((5S,5aS,6S,9R)-1-fluoro-12-(((2R,7aS)-2-fluorotetrahydro-1H-pyrrolizin-7a(5H)-yl)methoxy)-5-methyl-5a,6,7,8,9,10-hexahydro-5H-4-oxa-3,10a,11,13,14-pentaaza-6,9-methanonaphtho[1,8-ab]heptalen-2-yl)isoquinolin-1(2H)-one]	20	20
Cc1nc(N)cc(-c2nc3c4c(nc(OC[C@@]56CCCN5C[C@H](F)C6)nc4c2F)N2C[C@H]4CC[C@H](N4)[C@H]2[C@H](C)O3)c1CC(F)(F)F [Compound 185, 4-((5S,5aS,6S,9R)-1-Fluoro-12-(((2R,7aS)-2-fluorotetrahydro-1H-pyrrolizin-7a(5H)-yl)methoxy)-5-methyl-5a,6,7,8,9,10-hexahydro-5H-4-oxa-3,10a,11,13,14-pentaaza-6,9-methanonaphtho[1,8-ab]heptalene-2-yl)-6-methyl-5-(2,2,2-trifluoroethyl)pyridin-2-amine]	0.032	4.93
Cc1c(F)c(N)cc(-c2nc3c4c(nc(OCC5CC6COCCN65)nc4c2F)N2C[C@H]4CC[C@H](N4)[C@H]2[C@H](C)O3)c1C(F)(F)F (mixture of isomers) [159 (mixture), 5-((5S,5aS,6S,9R)-12-((4-Oxa-1-azabicyclo[4.2.0]octan-8-yl)methoxy)-1-fluoro-5-methyl-5a,6,7,8,9,10-hexahydro-5H-4-oxa-3,10a,11,13,14-pentaaza-6,9-methanonaphtho[1,8-ab]heptalen-2-yl)-2-fluoro-3-methyl-4-(trifluoromethyl)aniline]	0.0179	3.74
